Test results reported in patent US20250186425A1, “PPARG INVERSE AGONISTS AND USES THEREOF” (Flare Therapeutics Inc., priority 2022, published 2025).

Legend:
[1] = system: HT1197 (RXRA S427F mutation) cells; experiment: Bladder cancer pharmacodynamic assay, HT1197 cell assay (qPCR of PPARG target gene ANGPTL4); assay type: cell-based; details: Homo sapiens; for inhibition at 0.1 µM: 100 nM compound, 24 hours, relative to DMSO control; for EC50: 24 hours treatment, qPCR
Description: 5637 (PPARG amplified) and HT1197 (RXRA S427F mutation) cells were used for assessment of modulation of PPARG target genes using quantitative PCR. Cells were treated for 24 hours with PPARG inverse agonists prior to analysis of FABP4 (IDT, Cat: Hs.PT 58.20106818) and ANGPTL4 (IDT, Cat: Hs.PT 58.25480012) expression, with expression of the housekeeping gene TBP (IDT, Cat: Hs.PT 58v.39858774) used to normalize expression across samples. Quantitative PCR was performed using an ABI QuantStudio 7 Flex Reaction system. Data were analyzed and reported relative to DMSO control using the comparative Ct method […].

[2] = target: T1, PPARG/RXRA LBD heterodimer (Homo sapiens (Human), UniProt P37231); experiment: PPARG-MED1 blockade assay (TR-FRET); assay type: biochemical; details: for EC50: TR-FRET, biotinylated MED1 LxxLL peptide, 80 nM Rosiglitazone, 3 hours, IC50; for % MED1 blockade relative to GW9662: maximal extent, GW9662 defined as 100%, DMSO 0%
T1 sequence (P37231 whole entry, looked up, the tested form may be a part): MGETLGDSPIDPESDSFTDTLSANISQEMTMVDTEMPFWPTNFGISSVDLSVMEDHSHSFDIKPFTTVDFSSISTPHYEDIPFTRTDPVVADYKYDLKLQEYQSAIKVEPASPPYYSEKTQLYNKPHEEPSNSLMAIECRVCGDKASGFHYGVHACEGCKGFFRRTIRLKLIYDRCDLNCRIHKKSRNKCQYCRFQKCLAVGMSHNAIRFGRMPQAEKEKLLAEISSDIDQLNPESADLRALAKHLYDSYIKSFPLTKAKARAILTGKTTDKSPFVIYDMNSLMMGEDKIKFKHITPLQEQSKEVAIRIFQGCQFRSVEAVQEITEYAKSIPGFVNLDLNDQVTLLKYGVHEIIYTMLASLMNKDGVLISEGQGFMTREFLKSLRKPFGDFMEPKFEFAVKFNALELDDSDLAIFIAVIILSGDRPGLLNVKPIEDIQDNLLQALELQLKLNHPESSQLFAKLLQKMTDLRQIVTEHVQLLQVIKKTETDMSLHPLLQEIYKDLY
T1 sequence (P19793 whole entry partner, looked up, the tested form may be a part): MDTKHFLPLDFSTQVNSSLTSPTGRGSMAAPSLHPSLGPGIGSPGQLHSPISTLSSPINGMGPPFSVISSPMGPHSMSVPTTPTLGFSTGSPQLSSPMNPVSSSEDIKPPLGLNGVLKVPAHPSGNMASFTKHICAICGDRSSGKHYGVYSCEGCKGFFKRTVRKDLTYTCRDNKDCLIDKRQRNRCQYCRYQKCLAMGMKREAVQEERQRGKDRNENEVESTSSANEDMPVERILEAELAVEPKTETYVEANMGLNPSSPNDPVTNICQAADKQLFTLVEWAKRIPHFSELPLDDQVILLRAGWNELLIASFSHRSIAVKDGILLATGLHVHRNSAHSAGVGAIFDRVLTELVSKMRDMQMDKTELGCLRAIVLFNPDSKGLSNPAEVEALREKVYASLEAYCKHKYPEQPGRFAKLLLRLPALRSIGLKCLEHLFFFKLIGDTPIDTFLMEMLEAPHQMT
Description: Compound potency (IC50) and maximal extent of MED1 repulsion to PPARG were assessed a TR-FRET binding assay measuring association of a biotinylated MED1 LxxLL peptide (Biotin-[…]-amide) to PPARG/RXRA LBD heterodimer. Specifically, a 20 microliters of TR-FRET master mix consisting of 2 nM WT PPARG LBD (e. coli expressed, His-TEV-Q203-Y477; Uniprot ID P37231-2), 2 nM WT RXRA LBD (e. coli expressed, Flag-TEV-E228-T462; […]. Mixtures were incubated for 3 hours and read in an EnVision plate reader (Perkin Elmer) with Ex/Em 615/665. To determine the potency (IC50) and extent of MED1 repulsion, TR-FRET ratios were normalized to the average ratio of DMSO control wells (0%) and to the average minimum ratio for positive control compound (GW9662 (2-chloro-5-nitrobenzanilide); defined as 100%) in CDD Vault and analyzed using the Levenberg-Marquardt algorithm.

[3] = target: T1, PPARG/RXRA LBD heterodimer; experiment: PPARG-NCOR1 recruitment assay (TR-FRET); assay type: biochemical; details: for EC50: TR-FRET, biotinylated NCOR1 ID2 peptide, 80 nM Rosiglitazone, 3 hours, read-out: PPARG-NCOR recruitment assay EC50; for % NCOR recruitment relative to T907: maximal extent, T0070907 defined as 100%, DMSO 0%
Description: Compound potency (EC50) and maximal extent of NCOR1 recruitment to PPARG were assessed a TR-FRET binding assay measuring association of a biotinylated NCOR1 ID2 peptide (Biotin-[…]-amide) to PPARG/RXRA LBD heterodimer. Specifically, a 20 microliters of TR-FRET master mix consisting of 2 nM WT PPARG LBD (e. coli expressed, His-TEV-Q203-Y477; Uniprot ID P37231-2), 2 nM WT RXRA LBD or mutant S427F RXRA LBD (e. coli expressed, Flag-TEV-E228-T462; […]. Mixtures were incubated for 3 hours and read in an EnVision plate reader (Perkin Elmer) with Ex/Em 615/665. To determine the potency (EC50) and extent of NCOR1 recruitment, TR-FRET ratios were normalized to the average ratio of DMSO control wells (0%) and to the average maximum ratio for positive control compound (T0070907 (2-chloro-5-nitro-N-4-pyridinyl-benzamide); defined as 100%) in CDD Vault and analyzed using the Levenberg-Marquardt algorithm.

`CS(=O)(=O)c1ccc(C#N)cc1-c1cc(=O)c2c(Oc3ccc(Cl)cc3)cc(F)cc2[nH]1` [Example 1, 3-(5-(4-Chlorophenoxy)-7-Fluoro-4-Oxo-1,4-Dihydroquinolin-2-Yl)-4-(Methylsulfonyl)Benzonitrile] gave an inhibition at 0.1 µM [1] of 85%, an EC50 [1] of 0.8 nM and an EC50 [2] of 100 to 1000 nM. For the same molecule, the “% MED1 blockade relative to GW9662” value [2] was “A (A: >100% (>the control compound, GW9662))”, the EC50 [3] was 100 to 1000 nM and the “% NCOR recruitment relative to T907” value [3] was “A (A: >100% (>the control compound, T907))”.
For `N#Cc1ccc(Cl)c(-c2cc(=O)c3c(Oc4ccc(Cl)cc4)cc(F)cc3[nH]2)c1` [Example 2, 4-Chloro-3-(5-(4-Chlorophenoxy)-7-Fluoro-4-Oxo-1,4-Dihydroquinolin-2-Yl)Benzonitrile], the inhibition at 0.1 µM [1] was 91%, the EC50 [2] was 100 to 1000 nM and the “% MED1 blockade relative to GW9662” value [2] was “B (B: <100% (<the control compound, GW9662))”. For the same molecule, the EC50 [3] was 100 to 1000 nM and the “% NCOR recruitment relative to T907” value [3] was “A (A: >100% (>the control compound, T907))”.
For `Cn1cc(Oc2cc(F)cc3[nH]c(-c4cc(C#N)ccc4S(C)(=O)=O)cc(=O)c23)cn1` [Example 3, 3-(7-Fluoro-5-((1-Methyl-1H-Pyrazol-4-Yl)Oxy)-4-Oxo-1,4-Dihydroquinolin-2-Yl)-4-(Methylsulfonyl)Benzonitrile], the inhibition at 0.1 µM [1] was 82%, the EC50 [2] was 1000 to 10000 nM and the “% MED1 blockade relative to GW9662” value [2] was “A (A: >100% (>the control compound, GW9662))”. For the same molecule, the EC50 [3] was 1000 to 10000 nM and the “% NCOR recruitment relative to T907” value [3] was “A (A: >100% (>the control compound, T907))”.
`Cn1cc(Oc2cc(Cl)cc3[nH]c(-c4cc(C#N)ccc4S(C)(=O)=O)cc(=O)c23)cn1` [Example 4, 3-(7-Chloro-5-((1-Methyl-1H-Pyrazol-4-Yl)Oxy)-4-Oxo-1,4-Dihydroquinolin-2-Yl)-4-(Methylsulfonyl)Benzonitrile] was tested, and the inhibition at 0.1 µM [1] was 86%, the EC50 [1] was 0.35 nM and the EC50 [2] was 100 to 1000 nM. The “% MED1 blockade relative to GW9662” value [2] was “A (A: >100% (>the control compound, GW9662))”, the EC50 [3] was 100 to 1000 nM and the “% NCOR recruitment relative to T907” value [3] was “A (A: >100% (>the control compound, T907))”.
In the case of `N#Cc1ccc(Cl)c(-c2cc(=O)c3c(Oc4ccc(Cl)nc4)cc(F)cc3[nH]2)c1` [Example 5, 4-Chloro-3-(5-((6-Chloropyridin-3-Yl)Oxy)-7-Fluoro-4-Oxo-1,4-Dihydroquinolin-2-Yl)Benzonitrile], the inhibition at 0.1 µM [1] is reported as 77%, the EC50 [2] is reported as 100 to 1000 nM and the “% MED1 blockade relative to GW9662” value [2] is reported as “A (A: >100% (>the control compound, GW9662))”. The EC50 [3] was 100 to 1000 nM and the “% NCOR recruitment relative to T907” value [3] was “A (A: >100% (>the control compound, T907))”.
With `N#Cc1ccc(Cl)c(-c2cc(=O)c3c(OCc4ccc(Cl)cc4)cc(F)cc3[nH]2)c1` [Example 6, 4-Chloro-3-(5-((4-Chlorobenzyl)Oxy)-7-Fluoro-4-Oxo-1,4-Dihydroquinolin-2-Yl)Benzonitrile] the inhibition at 0.1 µM [1] was 25%, the EC50 [2] was 100 to 1000 nM and the “% MED1 blockade relative to GW9662” value [2] was “A (A: >100% (>the control compound, GW9662))”. The EC50 [3] was 100 to 1000 nM and the “% NCOR recruitment relative to T907” value [3] was “A (A: >100% (>the control compound, T907))”.
In the case of `CS(=O)(=O)c1ccc(C#N)cc1-c1cc(=O)c2c(Cc3ccc(Cl)cc3)cc(F)cc2[nH]1` [Example 7, 3-(5-(4-Chlorobenzyl)-7-Fluoro-4-Oxo-1,4-Dihydroquinolin-2-Yl)-4-(Methylsulfonyl)Benzonitrile], the inhibition at 0.1 µM [1] is reported as 90%, the EC50 [2] is reported as 100 to 1000 nM and the “% MED1 blockade relative to GW9662” value [2] is reported as “A (A: >100% (>the control compound, GW9662))”. For the same molecule, the EC50 [3] was 10 to 100 nM and the “% NCOR recruitment relative to T907” value [3] was “A (A: >100% (>the control compound, T907))”.
